Experimental findings from PubChem BioAssay (NCI) are described below.

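Compound exposure: 48 hours, 5 concentrations, 96-well plates. At the TGI there is no net growth.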 Where a SMILES comes first, the peptide text is derived from it. [ ]: non-standard residue; d: D form. The star is where a group is joined. AllylGly = C=CC[CH](N)C(=O)O; Boc = CC(C)(C)OC(=O)*; OtBu = CC(C)(C)O* Where only a bound is given, the exact number is not on record here.

Among the test systems are RXF 393 renal; DU-145 prostate; RPMI-8226 leukemia; OVCAR-8 ovarian; K-562 leukemia; UACC-62 melanoma; KM12 colon; HS 578T breast; MDA-MB-435; MDA-N.
Holding throughout (assay): inhibition of tumour cell growth, NCI panel, 48 h

As for `CC(C)C1(C)N=C(C(F)(F)F)c2cc(C(=O)C(F)(F)F)c3ccccc3c2N1` (stereo not given), the TGI is 10.1 µM in the test on RXF 393 renal; 14.1 µM in the test with DU-145 prostate; greater than 27 µM with RPMI-8226 leukemia; 17.6 µM in the test on OVCAR-8 ovarian; greater than 100 µM in the test with K-562 leukemia; 15.3 µM in the test with UACC-62 melanoma. Also, the TGI with KM12 colon was 12.7 µM; with HS 578T breast, 11 µM; in the test with MDA-MB-435, 11.3 µM; in the test on MDA-N, 13 µM.

Take `CCCCCCOc1ccc(C(=O)NOCc2ccccc2)cc1`: the TGI with RXF 393 renal, in the test with DU-145 prostate, in the test with RPMI-8226 leukemia, in the test with OVCAR-8 ovarian, with K-562 leukemia and in the test on UACC-62 melanoma was greater than 100 µM in each case. The TGI with KM12 colon, with HS 578T breast, in the test with MDA-MB-435 and in the test on MDA-N was greater than 100 µM each time.

As to `CCOC(=O)CCC(NC(=O)c1ccc(Oc2nc3ccc(C(F)(F)F)cc3nc2-c2ccccc2)cc1)C(=O)OCC` (stereo not given), the TGI with RXF 393 renal was 55.4 µM; in the test on DU-145 prostate, greater than 100 µM; in the test on RPMI-8226 leukemia, greater than 100 µM; in the test on OVCAR-8 ovarian it was greater than 57.7 µM; in the test on K-562 leukemia, greater than 100 µM; in the test with UACC-62 melanoma it was greater than 100 µM. Further, the TGI in the test on KM12 colon was greater than 100 µM; with HS 578T breast, 9.34 µM; with MDA-MB-435, greater than 100 µM; in the test with MDA-N, greater than 100 µM.

In the case of `CN(NC(=O)CCCl)C1=NCCN1`, the TGI with RXF 393 renal, with DU-145 prostate, with RPMI-8226 leukemia, in the test on OVCAR-8 ovarian, in the test with K-562 leukemia and with UACC-62 melanoma was greater than 100 µM each time. In addition, the TGI in the test on KM12 colon, with HS 578T breast, in the test on MDA-MB-435 and in the test with MDA-N was greater than 100 µM throughout.

On to `N#Cc1c(-c2ccc([N+](=O)[O-])cc2)cc(-c2ccc(Nc3ccnc4cc(C(F)(F)F)ccc34)cc2)nc1N`, for which the TGI in the test on RXF 393 renal was 51.7 µM; with DU-145 prostate, greater than 43.3 µM; in the test with RPMI-8226 leukemia, greater than 54.5 µM; in the test on OVCAR-8 ovarian, greater than 60.2 µM; with K-562 leukemia, 19.1 µM; in the test with UACC-62 melanoma, greater than 100 µM. In addition, the TGI in the test with KM12 colon is greater than 47.9 µM; in the test with HS 578T breast it was 66.1 µM; in the test on MDA-MB-435 it was 33.3 µM; in the test with MDA-N it was 38.3 µM.

Regarding `C=CCC(NC(=O)C(CC(=O)OC(C)(C)C)NC(=O)OC(C)(C)C)C(=O)OC` (stereo not given) (Boc-Asp(OtBu)-[AllylGly]-OMe; configuration not given here), the TGI with RXF 393 renal is greater than 100 µM; in the test on DU-145 prostate, greater than 100 µM; in the test on RPMI-8226 leukemia, greater than 84.6 µM; in the test with OVCAR-8 ovarian, 26.6 µM; in the test on K-562 leukemia it was greater than 100 µM; in the test with UACC-62 melanoma, greater than 100 µM. Moreover, the TGI in the test with KM12 colon was greater than 100 µM; in the test on HS 578T breast, greater than 100 µM; in the test on MDA-MB-435 it was greater than 91.3 µM; in the test with MDA-N it was greater than 79.7 µM.

In the case of `CCNC1(c2cccc(C)c2)OC(C)(C)c2cccc3cccc1c23` (stereo not given), the TGI in the test with RXF 393 renal was 32.1 µM; in the test with DU-145 prostate, 36.1 µM; in the test on RPMI-8226 leukemia, 15.8 µM; in the test on OVCAR-8 ovarian, 36.5 µM; in the test with K-562 leukemia it was greater than 100 µM; with UACC-62 melanoma it was 31 µM. The TGI is 69.8 µM in the test on KM12 colon, 44.3 µM in the test with HS 578T breast, 33.2 µM in the test with MDA-MB-435 and 36.8 µM in the test with MDA-N.

Take `O=C1NC(Cc2c[nH]c3ccccc23)C(=O)N2C(C3CCCCC3)c3[nH]c4ccccc4c3C[C@@H]12` (stereo not given in full): the TGI in the test on RXF 393 renal was 21.2 µM; in the test on DU-145 prostate, greater than 100 µM; with RPMI-8226 leukemia, 32.8 µM; in the test on OVCAR-8 ovarian, 56.7 µM; in the test with K-562 leukemia it was 44.8 µM; in the test on UACC-62 melanoma it was 34.5 µM. Further, the TGI with KM12 colon is 31.4 µM; in the test with HS 578T breast, 12.7 µM; in the test with MDA-MB-435, 24.6 µM; in the test on MDA-N it was 25.2 µM.

For the compound `CC(C)NC(=O)CN1CCN(C2=CC(=O)c3c(O)ccc(O)c3C2=O)CC1`, the TGI with RXF 393 renal is 33.2 µM; in the test on DU-145 prostate it was 29.7 µM; with RPMI-8226 leukemia, greater than 100 µM; in the test on OVCAR-8 ovarian, greater than 54 µM; in the test with K-562 leukemia, greater than 100 µM; with UACC-62 melanoma, 13.3 µM. The TGI in the test on KM12 colon was 33.2 µM; in the test with HS 578T breast, 62.5 µM; with MDA-MB-435, 3.76 µM; in the test with MDA-N, 16.3 µM.

As for `CC(C)(C)c1nc2c(o1)C(=O)c1ccccc1C2=O`, the TGI came out at 5.54 µM in the test on RXF 393 renal; 2.57 µM in the test with DU-145 prostate; 16.8 µM with RPMI-8226 leukemia; 3.37 µM with OVCAR-8 ovarian; 13.8 µM in the test on K-562 leukemia; 1.58 µM with UACC-62 melanoma. The TGI in the test on KM12 colon was 6.76 µM; with HS 578T breast, 4.26 µM; with MDA-MB-435, 0.327 µM; with MDA-N, 0.367 µM.

As to `C[C@]12CC[C@@H]3c4cc(OCC(F)(F)F)c(O)cc4C(=O)C[C@H]3[C@@H]1CC[C@@H]2O`, the TGI is 58.5 µM with RXF 393 renal; greater than 100 µM with DU-145 prostate; greater than 100 µM with RPMI-8226 leukemia; greater than 84.7 µM with OVCAR-8 ovarian; greater than 100 µM with K-562 leukemia; greater than 100 µM in the test with UACC-62 melanoma. For the same compound, the TGI in the test on KM12 colon is greater than 64.4 µM; in the test with HS 578T breast, 43.9 µM; with MDA-MB-435, greater than 25.4 µM; with MDA-N it was 5.69 µM.

Consider `C[C@H](Nc1c(O)c2c(c(O)c1Cl)C(=O)C=CC2=O)C(=O)Nc1ccc([N+](=O)[O-])cc1`, for which the TGI in the test on RXF 393 renal was 3.04 µM; in the test on DU-145 prostate, 3.22 µM; in the test with RPMI-8226 leukemia, greater than 10 µM; with OVCAR-8 ovarian it was 5.54 µM; in the test on K-562 leukemia, greater than 10 µM; in the test with UACC-62 melanoma, 6.16 µM. Besides, the TGI in the test with KM12 colon is 3.66 µM; in the test on HS 578T breast it was greater than 10 µM; in the test on MDA-MB-435, 3.04 µM; in the test on MDA-N, 6.67 µM.

Regarding `O=C1Nc2cccc(Cl)c2/C1=C\c1c(Cl)nc2sccn12`, the TGI was 29.6 µM in the test on RXF 393 renal; greater than 100 µM in the test on DU-145 prostate; greater than 100 µM in the test on RPMI-8226 leukemia; greater than 100 µM in the test on OVCAR-8 ovarian; greater than 100 µM in the test on K-562 leukemia; greater than 100 µM with UACC-62 melanoma. Moreover, the TGI in the test on KM12 colon was greater than 100 µM; with HS 578T breast, 57.5 µM; with MDA-MB-435, greater than 100 µM; in the test with MDA-N, greater than 100 µM.
